Measured values reported in PMC12329717 (Biochemistry, 2025).

What was measured:
HnoK = target: T1, HnoK (Caulobacter vibrioides, UniProt A0A0H3CAQ8, D543N); test: […] autophosphorylation, SDS-PAGE autoradiography; format: biochemical; conditions: 1 mM ATP with [gamma-32P]ATP, Mn2+ or Mg2+ 5 mM (Mn2+ preferred), room temperature; MBP fusion; labelled compound
T1 construct: gene CCNA_03088; N-terminal 6-His version also tested; E. coli BL21(DE3); homodimer

[1] = target: Caulobacter crescentus histidine kinase HnoK, as purified (Caulobacter crescentus); test: SEC; HiPrep Sephacryl S-200 HR column in 20 mM Tris, pH 8, 150 mM NaCl; elution volumes at the last step of purification

T1 sequence (A0A0H3CAQ8 entry or part of it D543N): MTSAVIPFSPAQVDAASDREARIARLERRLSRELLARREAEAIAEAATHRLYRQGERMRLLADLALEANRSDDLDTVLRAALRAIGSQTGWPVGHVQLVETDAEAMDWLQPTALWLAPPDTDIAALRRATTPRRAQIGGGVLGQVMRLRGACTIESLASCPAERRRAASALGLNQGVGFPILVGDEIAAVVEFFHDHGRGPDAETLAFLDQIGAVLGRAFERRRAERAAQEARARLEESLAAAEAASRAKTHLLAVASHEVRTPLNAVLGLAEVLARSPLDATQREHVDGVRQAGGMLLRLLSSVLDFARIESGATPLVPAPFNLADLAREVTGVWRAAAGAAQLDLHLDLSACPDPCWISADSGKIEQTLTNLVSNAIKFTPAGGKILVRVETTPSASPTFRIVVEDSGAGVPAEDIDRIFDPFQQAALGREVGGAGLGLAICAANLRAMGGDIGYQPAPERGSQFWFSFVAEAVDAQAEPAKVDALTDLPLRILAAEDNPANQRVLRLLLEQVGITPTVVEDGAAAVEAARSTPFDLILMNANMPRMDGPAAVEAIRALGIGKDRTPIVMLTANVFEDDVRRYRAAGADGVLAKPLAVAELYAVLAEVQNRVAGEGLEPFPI

Compound | 32P autophosphorylation, SDS-PAGE autoradiography (HnoK) | stoichiometry N [1]
Nc1ncnc2c1ncn2[C@@H]1O[C@H](COP(=O)(O)OP(=O)(O)OP(=O)(O)O)[C@@H](O)[C@H]1O [ATP] | D543N HnoK-MBP was used for the autophosphorylation assays shown | 
Caulobacter crescentus histidine kinase HnoK, as purified (from UniProt A0A0H3CAQ8 1-624) (enzyme) |  | 2
